The text below walks through data of patent US12527806B2, “Composition for preventing or treating diabetes mellitus” (SEOUL NATIONAL UNIVERSITY R&DB FOUNDATION, priority 2020, dated 2026).

For this data set, the system named is MIN-6 cells. Nature of the data set: Cytotoxicity: cell viability of MIN-6 cells by AOPI staining and cell counter. The conditions noted are these: 24 hours.

As for `CN(CC(=O)N(Cc1ccc(C2CCCCC2)cc1)c1ccc(C(=O)O)c(O)c1)S(=O)(=O)c1c(F)c(F)c(F)c(F)c1F` [BP-1-102], the cell viability entry (40 μM) is given as “about 59%”. For the same compound, the “cytotoxicity (cell viability)” value (up to 20 μM) is reported as “no cytotoxicity was shown”. On to `N[C@H]1C(O)O[C@H](CO)[C@@H](O)[C@@H]1O` (stereo partly shown) [glucosamine], for which, under “0.5 mM to 40 mM of each factor”, the “cytotoxicity (cell viability)” value is recorded as “did not show cytotoxicity”. Still for that read-out and setting: under `NC(=O)c1cccnc1` [nicotinamide] stands “did not show cytotoxicity”.
